Experiment [1] deals with Enterobacteriaceae. The experiment in a line: Antimicrobial activity against integron carrying Enterobacteriaceae assessed as percent resistant isolates. The experiment is classed as functional.
The test system of experiment [2] is Enterobacteriaceae. The experiment in a line: Antimicrobial activity against non-integron carrying Enterobacteriaceae assessed as percent resistant isolates. The experiment is classed as functional.

As to `CO[C@@]1(NC(=O)Cc2cccs2)C(=O)N2C(C(=O)O)=C(COC(N)=O)CS[C@@H]21` (single isomer, unassigned) [CEFOXITIN], the results for the Activity in experiment [1] and in experiment [2] were 40% and 16.6%, respectively.
As for `NCC[C@H](O)C(=O)N[C@@H]1C[C@H](N)[C@@H](O[C@H]2O[C@H](CN)[C@@H](O)[C@H](O)[C@H]2O)[C@H](O)[C@H]1O[C@H]1O[C@H](CO)[C@@H](O)[C@H](N)[C@H]1O` [AMIKACIN], the Activity in experiment [1] worked out at 29.7%; in experiment [2] it was 4.2%.
For `CC1(C)S[C@@H]2[C@H](NC(=O)[C@H](N)c3ccccc3)C(=O)N2[C@H]1C(=O)O` [AMPICILLIN], in that order: 96.3% and 60%.
As for `C[C@H]1[C@H](NC(=O)/C(=N\OC(C)(C)C(=O)O)c2csc(N)n2)C(=O)N1S(=O)(=O)O` [AZTREONAM], the figures for the Activity in experiment [1] and in experiment [2] were 26.9% and 9.4%, respectively.
`CO/N=C(\C(=O)N[C@@H]1C(=O)N2C(C(=O)[O-])=C(C[N+]3(C)CCCC3)CS[C@H]12)c1csc(N)n1` [CEFEPIME]: the Activity came out at 29.5% in experiment [1] and 6.2% in experiment [2].
For `CO/N=C(\C(=O)N[C@@H]1C(=O)N2C(C(=O)O)=C(COC(C)=O)CS[C@H]12)c1csc(N)n1` [CEFOTAXIME], in that order: 41.3% and 6.9%.
On to `CC(C)(O/N=C(\C(=O)N[C@@H]1C(=O)N2C(C(=O)[O-])=C(C[n+]3ccccc3)CS[C@H]12)c1csc(N)n1)C(=O)O` [CEFTAZIDIME], for which the Activity in experiment [1] worked out at 36.3%; in experiment [2], 4.9%.
For `CO/N=C(\C(=O)N[C@@H]1C(=O)N2C(C(=O)O)=C(COC(N)=O)CS[C@H]12)c1ccco1` [CEFUROXIME], in that order: 46.9% and 21.9%.
For `O=C(O)c1cn(C2CC2)c2cc(N3CCNCC3)c(F)cc2c1=O` [CIPROFLOXACIN], in that order: 49.4% and 6.9%.
For `COc1cc(Cc2cnc(N)nc2N)cc(OC)c1OC.Cc1cc(NS(=O)(=O)c2ccc(N)cc2)no1` [CO-TRIMOXAZOLE], in that order: 87.7% and 14.5%.
On to `C[C@@H](O)[C@H]1C(=O)N2C(C(=O)O)=C(SCCNC=N)C[C@H]12` [IMIPENEM ANHYDROUS], for which the Activity is 7.6% in experiment [1] and 1.2% in experiment [2].
The matching figures for `C[C@@H](O)[C@H]1C(=O)N2C(C(=O)O)=C(S[C@@H]3CN[C@H](C(=O)N(C)C)C3)[C@H](C)[C@H]12` [MEROPENEM]: 6% and 2%.
The matching figures for `CCN1CCN(C(=O)N[C@@H](C(=O)N[C@@H]2C(=O)N3[C@@H]2SC(C)(C)[C@@H]3C(=O)O)c2ccccc2)C(=O)C1=O` [PIPERACILLIN]: 90.2% and 32.1%.
The matching figures for `NC[C@H]1O[C@H](O[C@H]2[C@H](O)[C@@H](O[C@H]3O[C@H](CO)[C@@H](O)[C@H](N)[C@H]3O)[C@H](N)C[C@@H]2N)[C@H](N)C[C@@H]1O` [TOBRAMYCIN]: 41.8% and 8.5%.
For COLISTIMETHATE SODIUM, the Activity in experiment [1] and in experiment [2] was 12.5% each time.

The record behind these values is ChEMBL document CHEMBL1150792, “Enterobacteriaceae bloodstream infections: presence of integrons, risk factors, and outcome” (2007).
